According to publication PMC10574185, “Encapsulation and Biological Activity of Hesperetin Derivatives with HP-β-CD” (Molecules, 2023):
Blank lines part the entries; values can stand above or below the compound they belong to.

Legend:
[1] = test system: Salmonella Choleraesuis ATCC 7001; test: Antagonistic activity, diffusion-well method; assay type: cell-based; conditions: Salmonella enterica, compounds at 2.5 µM, wells 8 mm, 37 °C, 18 h
Description: (§1) The antimicrobial activity of the HESP, ligands ([…], and HTSC), and complexes with HP-β-CD were tested against Gram-positive bacteria (Listeria monocytogenes ATCC 19111, Listeria monocytogenes ATCC 19112, Listeria monocytogenes ATCC 19115, Staphylococcus aureus ATCC 29737, Staphylococcus aureus ATCC 25923, Staphylococcus aureus ATCC 27734) and Gram-negative bacteria (Escherichia coli ATCC 11303, Escherichia coli ATCC 35218, Salmonella Typhimurium, ATCC 14028, Salmonella Enteritidis ATCC 13076, Salmonella Choleraesuis ATCC 7001). The strains were activated from cryobanks by passaging them twice onto a Nutrient Broth (Merck, Darmstadt, Germany). All bacteria were grown for 24 h at 37 °C. Antagonistic activity of the following chemical compounds: […], and […] determined by the diffusion-well method. The test strains were plated on Mueller-Hinton Agar (Merck, Darmstadt, Germany) in the form of a surface layer of bacteria according to the procedures recommended by the European Committee on Antimicrobial Susceptibility Testing EUCAST [74]. The detailed methodology was described in the paper by Sykuła et al.. Bacterial inoculum was prepared from an overnight solid culture. The inoculum density was 1-2 × 10^8 CFU/mL, which corresponds to a McFarland standard of 0.5. The samples of the test compounds were dissolved in 5% (w/w) DMSO to obtain a concentration of 500 μM, and were sterilized using filtration (filter pore width 0.2 μm; (Sartorius AG, Gottingen, Germany). The bacteria inoculum test culture (0.1 mL) smear conducted was on sterile Mueller-Hinton Agar (Merck, Darmstadt, Germany) plates. […] A total of 50 μL of the prepared solutions of the tested compounds at a concentration of 500 μM were added to the wells. The plates prepared in this way were incubated at 37 °C for 18 h. After this time, zones of growth inhibition were read and the result was given in mm. The experiment was carried out in two independent repetitions. The results were expressed in average values and standard deviation. The results were analyzed using a one-way ANOVA and post-hoc Tukey's test.

[2] = test system: Listeria monocytogenes ATCC 19115; test: Antagonistic activity, diffusion-well method; assay type: cell-based; conditions: ATCC19115, compounds at 2.5 µM, wells 8 mm, 37 °C, 18 h
Description: as §1

[3] = test system: Listeria monocytogenes ATCC 19112; test: Antagonistic activity, diffusion-well method; assay type: cell-based; conditions: ATCC19112, compounds at 2.5 µM, wells 8 mm, 37 °C, 18 h
Description: as §1

[4] = test system: Salmonella Typhimurium ATCC 14028; test: Antagonistic activity, diffusion-well method; assay type: cell-based; conditions: Salmonella enterica, compounds at 2.5 µM, wells 8 mm, 37 °C, 18 h
Description: as §1

[5] = test system: Listeria monocytogenes ATCC 19111; test: Antagonistic activity, diffusion-well method; assay type: cell-based; conditions: ATCC19111, compounds at 2.5 µM, wells 8 mm, 37 °C, 18 h
Description: as §1

[6] = test system: Salmonella Enteritidis ATCC 13076; test: Antagonistic activity, diffusion-well method; assay type: cell-based; conditions: Salmonella enterica, compounds at 2.5 µM, wells 8 mm, 37 °C, 18 h
Description: as §1

[7] = test system: Staphylococcus aureus ATCC 27734; test: Antagonistic activity, diffusion-well method; assay type: cell-based; conditions: ATCC27734, compounds at 2.5 µM, wells 8 mm, 37 °C, 18 h
Description: as §1

[8] = FRAP assay (ferric-ion reducing antioxidant power); conditions: mean ± SD
Description: To evaluate the antioxidant ability of the tested systems, antioxidant analysis was performed. Antioxidants can scavenge hydroxyl radicals in two ways: by reacting directly with hydroxyl radicals (DPPH^•, ABTS^•+) or indirectly inhibiting the formation of hydroxyl radicals by chelating metal ions involved in the production of hydroxyl radicals. The antioxidant activity of the systems studied was investigated by using DPPH^• scavenging, ABTS^•+ scavenging ability, and Fe^2+-chelating ability. In this study, the antioxidant activity of pure hesperetin and its Schiff bases (HHSB, HIN, and HTSC) and HP-β-CD complexes were compared, and the positive control was Trolox.
The antioxidant capacity determined by the FRAP assay (the ability of plasma to reduce iron) was carried out using a modification of the FRAP assay. The FRAP reagent consisted of the following solutions: 300 mM acetate, pH 3.6 glacial acetic acid buffer, 20 mM ferric chloride (FeCl3×6H2O), and 10 mM 2,4,6-tripyridyl-S-triazine (TPTZ) prepared in 40 mM HCl. The aforementioned solutions were mixed together in a ratio of 10:1:1 (v/v/v). The FRAP assay consisted of adding 15 µL of sample to 1.98 mL of reagent and incubating the mixture at 37 °C for 4 min. Absorbance measurement was recorded at 593 nm against a blank. Total antioxidant capacity was estimated relative to a standard of known FRAP concentration, ferrous sulfate.

[9] = test system: Staphylococcus aureus ATCC 25923; test: Minimal inhibition concentration (dilution + diffusion-well); assay type: cell-based; conditions: ATCC25923, 37 °C, 18 h
Description: The MIC was performed for compounds and strains sensitive to their action in the antagonistic test. Minimum inhibitory concentration was determined by combining the dilution method with the diffusion-well method. Test compounds at a concentration of 500 μM were prepared in 5% (w/w) DMSO. Surface layer of microorganisms, against which antagonistic activity was noted, were prepared in the same way as for the antagonistic test. Then, two-fold sequential dilutions of the test compounds in the range of 500 µM to 62.5 µM were prepared. Wells with a diameter of 8 mm cut in the Mueller–Hinton Agar (Merck, Darmstadt, Germany) with the test strain were added with 50 µL of the prepared dilutions, which corresponded to the following concentrations of the tested compounds: […], 1.25 mM, 0.625 mM, and […]. Petri dishes prepared in this way were incubated at 37 °C for 18 h. After a given time, the MIC value was read. The MIC concentration expressed in µM was the first concentration of the tested compounds at which growth inhibition of the test strain was observed.

MIC [9]: 2.5 µM
Compound: COc1ccc(C2C/C(=N\NC(=O)c3ccccc3)c3c(O)cc(O)cc3O2)cc1O (racemic) [HHSB]
zone of inhibition at 2.5 µM [1]: 0 mm | zone of inhibition at 2.5 µM [2]: 0 mm | zone of inhibition at 2.5 µM [3]: 0 mm | zone of inhibition at 2.5 µM [4]: 0 mm | zone of inhibition at 2.5 µM [5]: 0 mm | zone of inhibition at 2.5 µM [6]: 0 mm | zone of inhibition at 2.5 µM [7]: 0 mm | FRAP antioxidant activity [8]: 0.000005 ± 0.00005 mmolFe(II)/L

MIC [9]: 2.5 µM
Compound: COc1ccc(C2C/C(=N\NC(=O)c3ccncc3)c3c(O)cc(O)cc3O2)cc1O (racemic) [HIN]
zone of inhibition at 2.5 µM [1]: 0 mm | zone of inhibition at 2.5 µM [2]: 0 mm | zone of inhibition at 2.5 µM [3]: 0 mm | zone of inhibition at 2.5 µM [4]: 0 mm | zone of inhibition at 2.5 µM [5]: 0 mm | zone of inhibition at 2.5 µM [6]: 0 mm | zone of inhibition at 2.5 µM [7]: 0 mm

MIC [9]: 1.25 µM
Compound: COc1ccc(C2CC(=NNC(N)=S)c3c(O)cc(O)cc3O2)cc1O (stereo not shown) [HTSC, N-[2,3-dihydro-5,7-dihydroxy-2-(3-hydroxy-4-methoxyphenyl)chromen-4-ylidene]thiosemicarbazide]
zone of inhibition at 2.5 µM [1]: 0 mm | zone of inhibition at 2.5 µM [2]: 0 mm | zone of inhibition at 2.5 µM [3]: 0 mm | zone of inhibition at 2.5 µM [4]: 0 mm | zone of inhibition at 2.5 µM [5]: 0 mm | zone of inhibition at 2.5 µM [6]: 0 mm | zone of inhibition at 2.5 µM [7]: 0 mm | FRAP antioxidant activity [8]: 0.000005 ± 0.00005 mmolFe(II)/L

Compound: COc1ccc(C2CC(=O)c3c(O)cc(O)cc3O2)cc1O (stereo not shown) [Hesperetin, 3′,5,7-Trihydroxy-4′-methoxyflavanone]
zone of inhibition at 2.5 µM [1]: 0 mm | zone of inhibition at 2.5 µM [2]: 0 mm | zone of inhibition at 2.5 µM [3]: 0 mm | zone of inhibition at 2.5 µM [4]: 0 mm | zone of inhibition at 2.5 µM [5]: 0 mm | zone of inhibition at 2.5 µM [6]: 0 mm | zone of inhibition at 2.5 µM [7]: 0 mm | FRAP antioxidant activity [8]: 0.0005 ± 0.0005 mmolFe(II)/L
